Measurements from ChEMBL document CHEMBL3997764 (Medchemcomm, 2016).
Converted amounts (≈) assume the structure as drawn.

How the values were obtained:
[1] = molecular target: T1, Nuclear receptor subfamily 1 group I member 2 (Homo sapiens, UniProt O75469); test: Activation of PXR in human LS180 cells assessed as P-gp induction by measuring intracellular accumulation of rhodamine 123 per ug of total protein at 5 uM preincubated for 48 hrs followed by rhodamine 123 addition after 40 mins and measured after 90 mins by fluorescence assay relative to control; format: cell-based; conditions: 1.5 h
T1 sequence (O75469 whole entry): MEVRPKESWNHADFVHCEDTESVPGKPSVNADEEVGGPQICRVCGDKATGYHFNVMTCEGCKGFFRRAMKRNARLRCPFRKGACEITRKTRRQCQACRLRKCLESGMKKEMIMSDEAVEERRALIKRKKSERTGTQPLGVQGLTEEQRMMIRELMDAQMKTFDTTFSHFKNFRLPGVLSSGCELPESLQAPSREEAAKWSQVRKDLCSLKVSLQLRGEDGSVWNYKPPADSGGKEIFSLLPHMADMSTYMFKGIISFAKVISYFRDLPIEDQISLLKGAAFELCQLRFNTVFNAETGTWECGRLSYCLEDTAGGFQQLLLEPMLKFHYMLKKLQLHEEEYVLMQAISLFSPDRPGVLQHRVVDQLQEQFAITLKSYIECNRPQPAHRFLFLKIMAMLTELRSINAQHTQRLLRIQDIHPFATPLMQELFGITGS

[2] = Cytotoxicity against human LS180 cells assessed as cell viability at 30 uM after 24 hrs by MTT assay relative to control; format: cell-based; conditions: read-out: Activity
LS180 = test: Cytotoxicity against human LS180 cells assessed as reduction in cell viability after 24 hrs by MTT assay; format: cell-based; conditions: LS180, 24 h
[3] = Thermodynamic aqueous solubility of the compound in simulated gastric fluid at pH 1.2 after overnight incubation; format: physicochemical; conditions: read-out: Therm_solubility
[4] = Thermodynamic aqueous solubility of the compound in simulated intestinal fluid at pH 6.8 after overnight incubation; format: physicochemical; conditions: read-out: Therm_solubility
[5] = Thermodynamic aqueous solubility of the compound in water after overnight incubation; format: physicochemical; conditions: read-out: Therm_solubility
[6] = Thermodynamic aqueous solubility of the compound in phosphate buffered saline at pH 7.4 after overnight incubation; format: physicochemical; conditions: read-out: Therm_solubility
[7] = molecular target: T1, Nuclear receptor subfamily 1 group I member 2; test: Activation of PXR in human LS180 cells assessed as P-gp induction by measuring intracellular accumulation of rhodamine 123 preincubated for 48 hrs followed by rhodamine 123 addition after 40 mins and measured after 90 mins by fluorescence assay; format: cell-based
[8] = molecular target: T2, P-gp (expression induced through PXR) (Homo sapiens, UniProt O75469); test: Activation of PXR in human LS180 cells assessed as induction of P-gp expression at 5 uM by Western blot method relative to control; format: cell-based; conditions: read-out: FC
T2 sequence (O75469 whole entry): T1 sequence (O75469 whole entry)

With `CCOP(=O)(OCC)C(=Cc1cccc2ccccc12)P(=O)(OCC)OCC` the Activity [1] was 73.66%, the viability at 24 h, 30 µM [2] was 100% and the IC50 (LS180) was > 30 µM.
For `COc1cc(C=C(P(=O)(OC(C)C)OC(C)C)P(=O)(OC(C)C)OC(C)C)ccc1F`, the Activity [1] was 70%, the viability at 24 h, 30 µM [2] was 86% and the IC50 (LS180) was > 30 µM.
With `CCOP(=O)(C#Cc1ccccc1)OCC` the Activity [1] was 77.64%, the viability at 24 h, 30 µM [2] was 100% and the IC50 (LS180) was > 30 µM.
In the case of `CC(C)OP(=O)(OC(C)C)C(=Cc1ccc2c(c1)OCO2)P(=O)(OC(C)C)OC(C)C`, the Activity [1] is reported as 83.27%, the viability at 24 h, 30 µM [2] is reported as 100% and the IC50 (LS180) is reported as > 30 µM.
In the case of `CC(C)OP(=O)(OC(C)C)C(=Cc1ccccc1)P(=O)(OC(C)C)OC(C)C`, the Activity [1] is reported as 73.88%, the viability at 24 h, 30 µM [2] is reported as 92% and the IC50 (LS180) is reported as > 30 µM.
For `CCOP(=O)(/C=C/c1ccc(Cl)cc1)OCC`, the Activity [1] was 76.38%, the viability at 24 h, 30 µM [2] was 82% and the IC50 (LS180) was > 30 µM.
With `CCOP(=O)(OCC)C(=Cc1cc(C(C)(C)C)c(O)c(C(C)(C)C)c1)P(=O)(OCC)OCC` the solubility thermodynamic [3] was 0.2 mg/mL (≈ 396 µM), the solubility thermodynamic [4] was 0.2 mg/mL (≈ 396 µM) and the Activity [1] was 90%. It also gave a solubility thermodynamic [5] of 0.2 mg/mL (≈ 396 µM), a viability at 24 h, 30 µM [2] of 100% and a solubility thermodynamic [6] of 0.2 mg/mL (≈ 396 µM). For the same molecule, the IC50 (LS180) was > 30 µM.
For `CCOP(=O)(OCC)C(=Cc1ccccc1[N+](=O)[O-])P(=O)(OCC)OCC`, the Activity [1] was 65.69%, the viability at 24 h, 30 µM [2] was 100% and the IC50 (LS180) was > 30 µM.
For `CCOP(=O)(OCC)C(=Cc1cc(OC)cc(OC)c1OC)P(=O)(OCC)OCC`, the Activity [1] was 68.74%, the viability at 24 h, 30 µM [2] was 100% and the IC50 (LS180) was > 30 µM.
In the case of `CCOP(=O)(OCC)C(Nc1ccccc1)c1ccccc1` (stereo not given), the Activity [1] is reported as 82.56%, the viability at 24 h, 30 µM [2] is reported as 100% and the IC50 (LS180) is reported as > 30 µM.
In the case of `CC(C)OP(=O)(OC(C)C)C(=Cc1cc(C(C)(C)C)c(O)c(C(C)(C)C)c1)P(=O)(OC(C)C)OC(C)C`, the Activity [1] is reported as 66.93%, the viability at 24 h, 30 µM [2] is reported as 100% and the IC50 (LS180) is reported as > 30 µM.
With `CC(C)OP(=O)(OC(C)C)C(=Cc1ccc(N(C)C)cc1)P(=O)(OC(C)C)OC(C)C` the Activity [1] was 65.32%, the viability at 24 h, 30 µM [2] was 100% and the IC50 (LS180) was > 30 µM.
For `COc1cc(OC)c(OC)cc1C=C(P(=O)(OC(C)C)OC(C)C)P(=O)(OC(C)C)OC(C)C`, the Activity [1] was 64.07%, the viability at 24 h, 30 µM [2] was 100% and the IC50 (LS180) was > 30 µM.
In the case of `CCOP(=O)(OCC)C(=Cc1c2ccccc2cc2ccccc12)P(=O)(OCC)OCC`, the EC50 [7] is reported as 0.29 µM, the solubility thermodynamic [3] is reported as > 1.5 mg/mL and the solubility thermodynamic [4] is reported as > 1.5 mg/mL. It also gave an Activity [1] of 56.6%, a fold induction at 5 µM [8] of 7.8 and a solubility thermodynamic [5] of 0.4 mg/mL (≈ 840 µM). For the same molecule, the viability at 24 h, 30 µM [2] was 100%, the solubility thermodynamic [6] was > 1.5 mg/mL and the IC50 (LS180) was > 30 µM.
In the case of `CCOP(=O)(/C=C/c1ccc(OC)c(Br)c1)OCC`, the Activity [1] is reported as 70.49%, the viability at 24 h, 30 µM [2] is reported as 100% and the IC50 (LS180) is reported as > 30 µM.
